Data reported in the NIST ThermoML archive (doi:10.1021/je900387e).

Experiment: xn = mol fraction of the nth substance listed
Conditions: Liquid, Pycnometric method

Cn1ccnc1 [1-methylimidazole] + O=C=O
Conditions	mass density [kg/m3]
327.6 K, 13060 kPa, x1 = 0.0247	704
327.6 K, 13110 kPa, x1 = 0.0102	649
327.6 K, 13250 kPa, x1 = 0.0247	711
327.6 K, 13400 kPa, x1 = 0.0102	663
327.6 K, 13460 kPa, x1 = 0.0247	718
327.6 K, 13670 kPa, x1 = 0.0247	724
327.6 K, 13730 kPa, x1 = 0.0102	677
327.6 K, 13900 kPa, x1 = 0.0247	731
327.6 K, 14110 kPa, x1 = 0.0102	692
327.6 K, 14140 kPa, x1 = 0.0247	738
327.6 K, 14190 kPa, x1 = 0.0487	791
327.6 K, 14340 kPa, x1 = 0.0487	795
327.6 K, 14410 kPa, x1 = 0.0247	745
327.6 K, 14560 kPa, x1 = 0.0102	707
327.6 K, 14570 kPa, x1 = 0.0487	799
327.6 K, 14710 kPa, x1 = 0.0247	753
327.6 K, 14830 kPa, x1 = 0.0487	804
327.6 K, 15010 kPa, x1 = 0.0247	760
327.6 K, 15080 kPa, x1 = 0.0487	809
327.6 K, 15100 kPa, x1 = 0.0102	723
327.6 K, 15270 kPa, x1 = 0.0247	766
327.6 K, 15370 kPa, x1 = 0.0487	814
327.6 K, 15550 kPa, x1 = 0.0247	772
327.6 K, 15660 kPa, x1 = 0.0487	819
327.6 K, 15730 kPa, x1 = 0.0102	740
327.6 K, 15940 kPa, x1 = 0.0487	825
327.6 K, 15970 kPa, x1 = 0.0247	779
327.6 K, 16080 kPa, x1 = 0.1024	899
327.6 K, 16170 kPa, x1 = 0.1024	900
327.6 K, 16280 kPa, x1 = 0.0487	829
327.6 K, 16300 kPa, x1 = 0.1024	901
327.6 K, 16400 kPa, x1 = 0.0247	787
327.6 K, 16420 kPa, x1 = 0.1024	903
327.6 K, 16460 kPa, x1 = 0.0102	758
327.6 K, 16540 kPa, x1 = 0.1024	904
327.6 K, 16640 kPa, x1 = 0.0247	791
327.6 K, 16650 kPa, x1 = 0.0487	836
327.6 K, 16650 kPa, x1 = 0.1024	905
327.6 K, 16780 kPa, x1 = 0.1024	906
327.6 K, 16930 kPa, x1 = 0.1024	908
327.6 K, 16980 kPa, x1 = 0.0247	798
327.6 K, 17060 kPa, x1 = 0.1024	909
327.6 K, 17130 kPa, x1 = 0.0102	771
327.6 K, 17210 kPa, x1 = 0.0247	802
327.6 K, 17210 kPa, x1 = 0.1024	911
327.6 K, 17330 kPa, x1 = 0.0487	846
327.6 K, 17390 kPa, x1 = 0.1024	912
327.6 K, 17490 kPa, x1 = 0.1024	913
327.6 K, 17600 kPa, x1 = 0.0247	808
327.6 K, 17620 kPa, x1 = 0.1024	914
327.6 K, 17740 kPa, x1 = 0.0487	851
327.6 K, 17750 kPa, x1 = 0.1024	916
327.6 K, 17850 kPa, x1 = 0.0102	786
327.6 K, 17870 kPa, x1 = 0.0247	813
327.6 K, 17960 kPa, x1 = 0.1024	918
327.6 K, 18080 kPa, x1 = 0.1024	919
327.6 K, 18200 kPa, x1 = 0.0487	857
327.6 K, 18230 kPa, x1 = 0.1024	920
327.6 K, 18380 kPa, x1 = 0.0102	795
327.6 K, 18380 kPa, x1 = 0.1024	922
327.6 K, 18580 kPa, x1 = 0.1024	923
327.6 K, 18690 kPa, x1 = 0.0487	863
327.6 K, 18770 kPa, x1 = 0.1024	924
327.6 K, 18840 kPa, x1 = 0.0102	802
327.6 K, 18940 kPa, x1 = 0.1024	925
332.4 K, 12410 kPa, x1 = 0.0102	539
332.4 K, 12550 kPa, x1 = 0.0102	548
332.4 K, 12670 kPa, x1 = 0.0102	558
332.4 K, 12820 kPa, x1 = 0.0102	568
332.4 K, 12980 kPa, x1 = 0.0102	578
332.4 K, 13160 kPa, x1 = 0.0102	589
